In ChEMBL document CHEMBL1201862, “PubChem BioAssay data set” (2004):
Activity calls are given as the source filed them.

What was measured:
[1] = target: T1, Intestinal-type alkaline phosphatase (Homo sapiens, UniProt P09923); test: human IAP activators, dose response, biochemical, luminescent, uHTS hits, set 2 (AID 488817); format: functional;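 note: potency of activators that raise enzyme activity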
[2] = target: T1, Intestinal-type alkaline phosphatase; test: human intestinal alkaline phosphatase activators, dose response, biochemical, luminescence, uHTS hits (AID 463120); format: functional
[3] = target: Intestinal-type alkaline phosphatase (Mus musculus, UniProt P24822); test: PubChem AID 488875; format: functional
Chain of Intestinal-type alkaline phosphatase (Mus musculus, UniProt P24822) (P24822 whole entry): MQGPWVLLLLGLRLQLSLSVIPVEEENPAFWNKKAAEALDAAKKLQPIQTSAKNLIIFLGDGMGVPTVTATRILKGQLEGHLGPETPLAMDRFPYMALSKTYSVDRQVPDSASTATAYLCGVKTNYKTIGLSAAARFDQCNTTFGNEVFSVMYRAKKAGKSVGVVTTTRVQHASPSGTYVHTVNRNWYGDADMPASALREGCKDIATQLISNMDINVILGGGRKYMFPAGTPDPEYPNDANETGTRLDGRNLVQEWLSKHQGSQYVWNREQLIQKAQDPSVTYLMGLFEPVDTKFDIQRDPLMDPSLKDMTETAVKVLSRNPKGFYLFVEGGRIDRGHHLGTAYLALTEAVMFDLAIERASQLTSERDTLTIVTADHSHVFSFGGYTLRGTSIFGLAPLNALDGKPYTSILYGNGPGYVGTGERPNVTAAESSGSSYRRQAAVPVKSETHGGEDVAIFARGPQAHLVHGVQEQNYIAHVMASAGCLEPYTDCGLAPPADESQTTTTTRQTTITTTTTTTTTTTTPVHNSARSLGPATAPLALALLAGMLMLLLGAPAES

[4] = target: T2, Alkaline phosphatase, tissue-nonspecific isozyme (Homo sapiens, UniProt P05186); test: TNAP enzyme activators, dose response, selectivity assay for human IAP activator project, biochemical, TNAP isozyme, human IAP uHTS hits (AID 488886); format: functional;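 note: potency of compounds raising TNAP activity as a selectivity check on IAP activators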
T2 sequence (P05186 whole entry): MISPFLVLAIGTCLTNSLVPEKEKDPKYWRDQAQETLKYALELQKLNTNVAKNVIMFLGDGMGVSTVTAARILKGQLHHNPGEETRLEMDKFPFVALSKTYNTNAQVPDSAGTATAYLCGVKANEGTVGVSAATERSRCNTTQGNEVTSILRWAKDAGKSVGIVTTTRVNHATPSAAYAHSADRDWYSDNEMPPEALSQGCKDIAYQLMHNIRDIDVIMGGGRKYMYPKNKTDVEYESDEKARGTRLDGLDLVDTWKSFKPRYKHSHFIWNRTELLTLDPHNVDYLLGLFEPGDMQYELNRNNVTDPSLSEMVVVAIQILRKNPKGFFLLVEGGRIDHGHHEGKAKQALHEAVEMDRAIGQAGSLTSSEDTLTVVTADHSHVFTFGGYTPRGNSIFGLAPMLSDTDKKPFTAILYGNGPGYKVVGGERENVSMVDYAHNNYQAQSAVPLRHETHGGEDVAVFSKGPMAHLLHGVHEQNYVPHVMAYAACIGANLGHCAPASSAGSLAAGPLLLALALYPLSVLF

ORF 73 = ORF 73 (Human herpesvirus 8, UniProt O40947); test: inhibitors of C-LANA binding to LBS DNA, dose response, biochemical, fluorescence polarization, cherry-picked samples (AID 504725); parameters: species or system Human gammaherpesvirus 8;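 note: fluorescence polarization of a labeled DNA duplex reporting LANA DNA binding; potency is for inhibitors that block LANA binding to the DNA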
[5] = target: UDP-galactopyranose mutase (Mycobacterium tuberculosis, UniProt P9WIQ1); test: Inhibitors of Mycobacterium tuberculosis UDP-galactopyranose mutase (UGM) enzyme Measured in Biochemical System Using Plate Reader - 2105-02_Inhibitor_Dose_CherryPick_Activity. [Related pubchem assays (depositor defined):AID504439]
[6] = target: T3, Serine/threonine-protein phosphatase (Candida dubliniensis (strain CD36 / CBS 7987 / NCPF 3949 / NRRLY-17841) (Yeast), UniProt B9W6M3); test: calcineurin pathway inhibitors in yeast reporter, dose response, S. cerevisiae, CDRE-lacZ, luminescence, secondary (AID 2388); format: functional, cell-based;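 note: yeast reporter cells carrying a calcineurin-responsive lacZ construct stimulated with calcium chloride; luminescent beta-galactosidase reporter signal in whole cells rather than isolated phosphatase activity; potency for inhibition where a drop in reporter signal means calcineurin blockade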
T3 sequence (B9W6M3 whole entry): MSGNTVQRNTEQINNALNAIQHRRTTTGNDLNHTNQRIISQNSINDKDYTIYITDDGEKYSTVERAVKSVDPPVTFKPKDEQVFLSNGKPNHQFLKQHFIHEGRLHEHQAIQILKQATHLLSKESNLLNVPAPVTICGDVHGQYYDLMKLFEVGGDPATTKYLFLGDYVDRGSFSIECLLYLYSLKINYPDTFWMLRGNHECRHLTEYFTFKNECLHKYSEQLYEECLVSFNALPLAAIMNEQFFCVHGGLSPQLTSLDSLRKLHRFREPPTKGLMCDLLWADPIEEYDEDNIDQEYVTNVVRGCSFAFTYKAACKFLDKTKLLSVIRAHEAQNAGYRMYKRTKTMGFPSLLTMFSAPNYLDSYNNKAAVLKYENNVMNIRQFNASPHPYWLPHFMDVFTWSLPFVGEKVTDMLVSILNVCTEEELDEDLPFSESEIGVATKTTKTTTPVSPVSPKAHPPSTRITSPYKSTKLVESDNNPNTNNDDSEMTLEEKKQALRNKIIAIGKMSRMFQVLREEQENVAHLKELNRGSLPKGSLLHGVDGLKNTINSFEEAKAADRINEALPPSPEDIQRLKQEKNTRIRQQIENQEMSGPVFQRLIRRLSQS

[7] = target: ATP-dependent molecular chaperone HSP82 (Candida albicans (strain WO-1) (Yeast), UniProt C4YTQ8); test: loss of DOC-induced GRE-beta-galactosidase reporter signal, dose response, Hsp90 inhibitor project, S. cerevisiae, luminescence (AID 2400); format: functional, cell-based;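 note: beta-galactosidase luminescence from glucocorticoid response element reporter as proxy for Hsp90 function; inhibitor potency where signal loss means Hsp90 inhibition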
Chain of ATP-dependent molecular chaperone HSP82 (C4YTQ8 whole entry): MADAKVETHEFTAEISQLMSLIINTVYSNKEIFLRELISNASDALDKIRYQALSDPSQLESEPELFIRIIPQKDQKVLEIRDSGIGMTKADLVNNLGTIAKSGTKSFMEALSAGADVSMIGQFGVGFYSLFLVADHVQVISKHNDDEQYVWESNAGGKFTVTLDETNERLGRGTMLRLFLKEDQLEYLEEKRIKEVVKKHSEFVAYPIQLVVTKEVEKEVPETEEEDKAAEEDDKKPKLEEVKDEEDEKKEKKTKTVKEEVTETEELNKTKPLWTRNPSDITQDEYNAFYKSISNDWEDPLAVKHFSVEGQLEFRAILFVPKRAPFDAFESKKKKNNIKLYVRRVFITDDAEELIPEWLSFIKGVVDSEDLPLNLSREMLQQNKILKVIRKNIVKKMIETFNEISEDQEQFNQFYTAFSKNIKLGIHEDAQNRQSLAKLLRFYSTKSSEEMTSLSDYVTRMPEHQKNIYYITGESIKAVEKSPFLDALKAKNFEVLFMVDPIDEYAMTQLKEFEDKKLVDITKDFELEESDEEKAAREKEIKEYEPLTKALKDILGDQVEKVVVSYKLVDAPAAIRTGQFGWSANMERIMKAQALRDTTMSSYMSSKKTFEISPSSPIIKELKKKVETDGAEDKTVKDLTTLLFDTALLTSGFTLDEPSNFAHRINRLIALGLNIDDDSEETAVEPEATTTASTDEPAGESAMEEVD

[8] = NIH-3T3 fibroblast cytotoxicity, dose response, cytotoxicity control, cell-based, fluorescence, Alamar Blue, secondary assay (AID 2327); format: functional;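 note: NIH-3T3 mouse fibroblasts cultured with fluconazole at 8 µg/mL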
[9] = C. albicans growth with fluconazole, confirmation, fluorescence, retest (AID 2467); format: functional, cell-based
[10] = target: G-protein coupled receptor 55 (Homo sapiens, UniProt Q9Y2T6); test: GPR55 antagonists blocking LPI-driven arrestin recruitment, primary screen, imaging, U2OS, beta-arrestin-GFP, LPI agonist (AID 2013); format: functional;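 note: antagonist potency measured as reduced agonist-driven arrestin aggregation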
Chain of G-protein coupled receptor 55 (Q9Y2T6 whole entry): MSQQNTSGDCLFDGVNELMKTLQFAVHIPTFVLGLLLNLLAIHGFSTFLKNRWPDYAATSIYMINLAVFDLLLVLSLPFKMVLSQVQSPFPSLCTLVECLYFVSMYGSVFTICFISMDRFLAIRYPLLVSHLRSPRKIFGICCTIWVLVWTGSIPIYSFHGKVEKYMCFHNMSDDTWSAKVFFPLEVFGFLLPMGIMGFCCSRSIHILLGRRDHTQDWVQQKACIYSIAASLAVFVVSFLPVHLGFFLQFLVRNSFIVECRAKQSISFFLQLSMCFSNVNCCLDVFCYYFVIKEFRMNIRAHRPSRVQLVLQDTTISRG

[11] = target: T4, Voltage-gated N-type calcium channel alpha-1B subunit/Amyloid beta A4 precursor protein-binding family A member 1 (Homo sapiens, UniProt Q00975+Q02410); format: protein assay
Ephrin type-A receptor 4 = Ephrin type-A receptor 4 (Mus musculus, UniProt Q03137); test: inhibitors of EphA4 binding to KYL peptide, primary screen, biochemical, colorimetric, mouse EphA4 (AID 689); format: functional
Chain of Ephrin type-A receptor 4 (Q03137 whole entry): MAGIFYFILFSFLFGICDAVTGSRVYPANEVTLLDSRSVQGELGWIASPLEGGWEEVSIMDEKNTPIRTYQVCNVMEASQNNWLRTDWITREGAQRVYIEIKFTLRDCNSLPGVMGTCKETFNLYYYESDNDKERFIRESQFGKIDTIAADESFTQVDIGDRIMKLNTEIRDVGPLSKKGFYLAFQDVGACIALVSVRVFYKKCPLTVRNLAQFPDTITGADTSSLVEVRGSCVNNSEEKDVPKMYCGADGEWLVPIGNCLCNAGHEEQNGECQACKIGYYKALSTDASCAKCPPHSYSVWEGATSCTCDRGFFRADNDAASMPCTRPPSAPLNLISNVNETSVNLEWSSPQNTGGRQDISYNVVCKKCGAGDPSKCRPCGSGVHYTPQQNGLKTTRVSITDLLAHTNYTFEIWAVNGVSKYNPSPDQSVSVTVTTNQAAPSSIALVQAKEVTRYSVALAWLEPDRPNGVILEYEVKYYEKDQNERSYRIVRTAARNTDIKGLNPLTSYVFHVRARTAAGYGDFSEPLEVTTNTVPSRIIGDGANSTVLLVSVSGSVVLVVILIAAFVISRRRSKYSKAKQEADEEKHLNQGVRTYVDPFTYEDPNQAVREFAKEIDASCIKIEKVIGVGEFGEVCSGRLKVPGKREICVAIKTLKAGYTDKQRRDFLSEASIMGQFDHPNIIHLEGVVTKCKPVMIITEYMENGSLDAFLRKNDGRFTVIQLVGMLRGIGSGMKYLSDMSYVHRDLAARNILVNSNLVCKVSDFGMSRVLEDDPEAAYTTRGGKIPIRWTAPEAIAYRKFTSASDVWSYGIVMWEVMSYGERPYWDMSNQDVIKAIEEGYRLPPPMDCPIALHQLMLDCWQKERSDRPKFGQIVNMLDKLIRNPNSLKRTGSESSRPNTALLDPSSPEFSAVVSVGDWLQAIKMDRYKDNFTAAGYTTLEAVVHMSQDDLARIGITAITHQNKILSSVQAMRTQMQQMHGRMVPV

[12] = target: T4, Voltage-gated N-type calcium channel alpha-1B subunit/Amyloid beta A4 precursor protein-binding family A member 1; format: protein assay; remark: listed apart in the source
Estrogen receptor = target: T5, Estrogen receptor (Homo sapiens, UniProt P03372);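 note: potency for inhibiting coactivator peptide recruitment to the receptor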
T5 sequence (P03372 whole entry): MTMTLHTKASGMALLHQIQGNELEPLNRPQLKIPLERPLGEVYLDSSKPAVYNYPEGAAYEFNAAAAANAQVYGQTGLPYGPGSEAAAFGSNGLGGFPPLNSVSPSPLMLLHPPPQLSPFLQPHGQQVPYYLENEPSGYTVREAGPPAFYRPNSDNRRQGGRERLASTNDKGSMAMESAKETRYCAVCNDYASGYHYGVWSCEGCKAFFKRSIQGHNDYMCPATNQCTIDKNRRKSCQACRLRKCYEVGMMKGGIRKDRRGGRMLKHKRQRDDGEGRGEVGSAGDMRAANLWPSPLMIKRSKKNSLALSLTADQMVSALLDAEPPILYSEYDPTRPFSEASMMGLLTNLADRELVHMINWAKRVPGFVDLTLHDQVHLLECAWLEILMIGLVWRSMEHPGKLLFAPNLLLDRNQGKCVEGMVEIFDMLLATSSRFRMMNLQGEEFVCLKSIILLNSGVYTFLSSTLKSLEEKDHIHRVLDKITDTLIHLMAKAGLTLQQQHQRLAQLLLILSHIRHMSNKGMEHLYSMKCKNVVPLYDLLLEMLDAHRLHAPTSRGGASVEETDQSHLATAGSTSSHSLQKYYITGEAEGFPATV

[13] = cytotoxicity in KRAS-transformed pancreatic duct cells, primary screen, cell-based, fluorescence, HTS (AID 431); format: functional; conditions: Homo sapiens;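 note: cell line used: HPDE-C7K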
[14] = target: Induced myeloid leukemia cell differentiation protein Mcl-1 (Homo sapiens, UniProt Q07820); format: functional
Chain of Induced myeloid leukemia cell differentiation protein Mcl-1 (Q07820 whole entry): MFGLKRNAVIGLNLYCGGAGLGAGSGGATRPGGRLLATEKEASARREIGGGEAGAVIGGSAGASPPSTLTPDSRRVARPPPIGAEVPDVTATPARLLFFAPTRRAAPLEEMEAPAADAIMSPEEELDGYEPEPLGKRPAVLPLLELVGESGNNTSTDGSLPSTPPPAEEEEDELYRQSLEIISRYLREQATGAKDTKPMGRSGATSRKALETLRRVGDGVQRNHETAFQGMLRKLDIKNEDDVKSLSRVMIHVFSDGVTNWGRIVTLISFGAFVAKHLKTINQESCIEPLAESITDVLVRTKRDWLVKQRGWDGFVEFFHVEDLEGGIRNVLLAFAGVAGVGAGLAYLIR

[15] = cytotoxicity in HPDE-C7 cells, cell-based, fluorescence, HTS (AID 430); format: functional; conditions: Homo sapiens
INS1 = test: beta cell apoptosis inhibitors, cytokine rescue, dose response, luminescence, retest (AID 449756); format: functional, cell-based; conditions: Rattus norvegicus;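 note: cell death triggered by IL-1 beta plus TNF-alpha plus IFN-gamma mixture; protective hits raise ATP signal compared with cytokine alone wells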
[16] = target: Heat shock protein HSP 90-alpha (Homo sapiens, UniProt P07900); format: functional, organism-based
Troponin, cardiac muscle = Troponin, cardiac muscle (Homo sapiens, UniProt P19429+P45379+P63316); test: Fluorescence-based biochemical high throughput dose response assay for activators of the calcium sensitivity of cardiac Regulated Thin Filaments (RTF). [Related pubchem assays (depositor defined):AID493008, AID493018, AID504382, AID504383]; format: protein-complex assay
CAAX prenyl protease 1 = CAAX prenyl protease 1 (Saccharomyces cerevisiae S288c, UniProt P47154); test: Ste24 protease inhibitors, dose response, biochemical, S. cerevisiae, plate reader, cherry-pick (AID 488815)
Chain of CAAX prenyl protease 1 (P47154 whole entry): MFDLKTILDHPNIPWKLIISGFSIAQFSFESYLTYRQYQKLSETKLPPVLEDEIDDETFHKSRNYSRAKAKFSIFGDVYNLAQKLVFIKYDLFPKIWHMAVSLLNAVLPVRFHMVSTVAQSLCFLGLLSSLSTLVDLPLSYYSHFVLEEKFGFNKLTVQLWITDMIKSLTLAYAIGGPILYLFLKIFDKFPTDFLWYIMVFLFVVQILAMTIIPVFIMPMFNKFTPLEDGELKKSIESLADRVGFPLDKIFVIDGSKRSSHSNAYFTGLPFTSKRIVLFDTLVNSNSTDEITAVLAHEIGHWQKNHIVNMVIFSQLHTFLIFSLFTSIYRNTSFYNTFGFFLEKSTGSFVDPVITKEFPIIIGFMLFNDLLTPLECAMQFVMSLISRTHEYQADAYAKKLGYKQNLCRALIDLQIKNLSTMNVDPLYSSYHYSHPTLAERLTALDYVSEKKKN

CAAX prenyl protease 2 [17] = target: CAAX prenyl protease 2 (Saccharomyces cerevisiae S288c, UniProt Q03530); format: biochemical
Chain of CAAX prenyl protease 2 (Saccharomyces cerevisiae S288c, UniProt Q03530) (Q03530 whole entry): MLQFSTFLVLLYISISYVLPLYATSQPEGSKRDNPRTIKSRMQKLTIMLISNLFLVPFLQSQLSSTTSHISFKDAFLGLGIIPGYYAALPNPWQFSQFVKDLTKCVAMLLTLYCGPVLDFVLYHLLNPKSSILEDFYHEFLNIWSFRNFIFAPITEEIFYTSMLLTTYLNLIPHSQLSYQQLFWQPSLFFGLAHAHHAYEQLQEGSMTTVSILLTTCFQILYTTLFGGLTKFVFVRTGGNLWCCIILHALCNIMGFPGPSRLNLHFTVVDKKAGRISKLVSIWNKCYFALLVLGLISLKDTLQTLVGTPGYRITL

CAAX prenyl protease 2 [18] = target: T6, CAAX prenyl protease 2 (Homo sapiens, UniProt Q9Y256); test: human Rce1 protease inhibitors, dose response, biochemical, yeast membranes, quenched-peptide fluorescence, cherry-pick (AID 588849)
T6 sequence (Q9Y256 whole entry): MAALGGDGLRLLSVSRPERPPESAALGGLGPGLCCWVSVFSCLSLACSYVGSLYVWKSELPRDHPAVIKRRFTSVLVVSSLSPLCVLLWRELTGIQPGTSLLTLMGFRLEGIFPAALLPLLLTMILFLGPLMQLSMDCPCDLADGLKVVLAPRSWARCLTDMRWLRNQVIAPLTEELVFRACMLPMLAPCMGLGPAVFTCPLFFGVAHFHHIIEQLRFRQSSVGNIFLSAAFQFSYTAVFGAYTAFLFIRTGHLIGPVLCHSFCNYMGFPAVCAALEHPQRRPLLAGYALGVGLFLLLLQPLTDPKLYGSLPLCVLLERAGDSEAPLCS

Prothrombin = Prothrombin (Homo sapiens, UniProt P00734); test: Thrombin 1536 HTS Dose Response Confirmation. [Related pubchem assays: 1046 (Thrombin 1536 HTS; hits were confirmed in this assay)]; format: functional
[19] = target: T7, Zinc finger protein mex-5 (Caenorhabditis elegans, UniProt Q9XUB2); test: MEX-5/TCR-2 RNA interaction inhibitors, dose response, biochemical, C. elegans, fluorescence polarization (AID 1960)
T7 sequence (Q9XUB2 whole entry): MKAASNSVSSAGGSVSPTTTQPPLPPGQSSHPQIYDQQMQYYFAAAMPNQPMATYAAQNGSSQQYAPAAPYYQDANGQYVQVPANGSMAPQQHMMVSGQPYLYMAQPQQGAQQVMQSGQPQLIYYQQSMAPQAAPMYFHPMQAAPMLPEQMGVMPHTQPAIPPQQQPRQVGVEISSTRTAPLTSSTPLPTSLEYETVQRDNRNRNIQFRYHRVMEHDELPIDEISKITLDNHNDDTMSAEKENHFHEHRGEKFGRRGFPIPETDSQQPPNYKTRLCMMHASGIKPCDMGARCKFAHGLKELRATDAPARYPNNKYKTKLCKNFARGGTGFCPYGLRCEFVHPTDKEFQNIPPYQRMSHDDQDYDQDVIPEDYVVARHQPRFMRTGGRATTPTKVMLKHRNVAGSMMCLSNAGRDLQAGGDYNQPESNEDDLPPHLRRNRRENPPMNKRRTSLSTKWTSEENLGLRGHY

Estrogen receptor beta [20] = target: T8, Estrogen receptor beta (Homo sapiens, UniProt Q92731); test: ERβ–SRC-3 coactivator interaction inhibitors, confirmation, orthogonal assay, biochemical, ELISA, streptavidin-HRP readout (AID 1060)
T8 sequence (Q92731 whole entry): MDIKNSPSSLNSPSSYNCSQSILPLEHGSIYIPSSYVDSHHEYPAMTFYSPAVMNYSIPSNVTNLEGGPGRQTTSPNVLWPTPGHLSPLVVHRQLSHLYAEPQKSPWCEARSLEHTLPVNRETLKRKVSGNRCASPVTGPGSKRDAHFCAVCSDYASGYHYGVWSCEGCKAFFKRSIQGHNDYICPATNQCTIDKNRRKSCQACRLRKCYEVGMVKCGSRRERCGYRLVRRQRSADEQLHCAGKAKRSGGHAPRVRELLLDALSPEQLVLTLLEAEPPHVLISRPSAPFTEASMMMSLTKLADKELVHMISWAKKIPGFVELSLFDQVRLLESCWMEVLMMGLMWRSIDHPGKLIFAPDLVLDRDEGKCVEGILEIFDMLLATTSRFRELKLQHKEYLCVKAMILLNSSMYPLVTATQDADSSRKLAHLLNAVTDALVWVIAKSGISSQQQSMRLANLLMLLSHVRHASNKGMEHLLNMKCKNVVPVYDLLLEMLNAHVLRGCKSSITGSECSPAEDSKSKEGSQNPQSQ

Estrogen receptor beta [21] = target: T8, Estrogen receptor beta
[22] = target: T9, RNA-binding protein pos-1 (Caenorhabditis elegans, UniProt G5EF15); test: inhibitors of POS-1/mex-3 RNA binding, dose response, biochemical, fluorescence polarization (AID 1964);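 note: purified POS-1 fused to maltose binding protein made in E. coli; potency of compounds blocking POS-1 binding to fluorescent RNA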
T9 sequence (G5EF15 whole entry): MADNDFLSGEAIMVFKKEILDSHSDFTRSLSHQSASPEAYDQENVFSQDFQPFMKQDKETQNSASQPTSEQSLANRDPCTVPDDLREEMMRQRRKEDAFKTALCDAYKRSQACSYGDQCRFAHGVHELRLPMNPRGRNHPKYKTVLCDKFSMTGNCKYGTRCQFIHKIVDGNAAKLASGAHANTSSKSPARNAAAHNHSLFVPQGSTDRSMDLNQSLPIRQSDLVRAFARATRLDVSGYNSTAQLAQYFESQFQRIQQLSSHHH

T1 sequence (P09923 whole entry): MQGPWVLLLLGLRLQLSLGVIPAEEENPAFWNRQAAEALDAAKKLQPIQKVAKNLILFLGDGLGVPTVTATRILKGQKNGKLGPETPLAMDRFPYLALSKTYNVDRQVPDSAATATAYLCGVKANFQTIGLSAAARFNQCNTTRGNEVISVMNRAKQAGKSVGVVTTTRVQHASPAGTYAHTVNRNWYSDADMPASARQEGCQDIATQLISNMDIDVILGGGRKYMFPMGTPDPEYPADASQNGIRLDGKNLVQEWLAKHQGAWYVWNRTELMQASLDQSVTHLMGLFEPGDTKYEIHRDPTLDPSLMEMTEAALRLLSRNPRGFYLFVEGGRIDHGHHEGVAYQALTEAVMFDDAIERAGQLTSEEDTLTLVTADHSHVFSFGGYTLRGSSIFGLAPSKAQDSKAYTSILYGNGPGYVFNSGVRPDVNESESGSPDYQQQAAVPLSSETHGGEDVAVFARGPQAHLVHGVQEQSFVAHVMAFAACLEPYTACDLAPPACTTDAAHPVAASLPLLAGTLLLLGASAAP

Cc1nn(C)c(C(=O)NN=C(S)NCc2ccccc2)c1Cl
EC50 [1]: 17 µM (active) | EC50 [2]: 14.8 µM (active) | EC50 [3]: > 100 µM (inactive) | EC50 [4]: 17.3 µM (active)

CCN(CC)c1ccc2cc(S(=O)(=O)c3ccc(C)cc3)c(=O)oc2c1
AC50 (ORF 73): 18.4 µM (active) | AC50 [5]: 63.4 µM (active) | EC50 [6]: > 180 µM (inactive) | EC50 [7]: 21.9 µM (active) | EC50 [8]: 25.2 µM (active) | EC50 [9]: 0.203 µM (active)

Cc1ccc(-c2nc(SCC(=O)N(C)C3CCS(=O)(=O)C3)[nH]c2-c2ccc(C)cc2)cc1 (stereo unspecified)
IC50 [10]: 3.83 µM (active)

CSc1nc(NCCOCCO)c2sc3nc(-c4ccco4)c4c(c3c2n1)CCC4
IC50 [11]: 14.7 µM (active) | IC50 (Ephrin type-A receptor 4): > 100 µM (not active) | IC50 [12]: 1.98 µM (active) | IC50 (Estrogen receptor): > 50 µM (not active) | EC50 [13]: 6.86 µM (active) | IC50 [14]: 1.92 µM (active) | EC50 [15]: 8.85 µM (active)

CC1=NN(c2nc3ccccc3[nH]2)C(=O)/C1=C/N(C)C
EC50 [1]: 23.2 µM (active) | AC50 (INS1): 2.48 µM (active) | EC50 [2]: 12.3 µM (active) | AC50 [16]: 6.12 µM (active) | EC50 [3]: > 100 µM (inactive) | EC50 [4]: 11.4 µM (active)

Cn1cc(/C=C2\SC(=S)N(NC(=O)c3ccccc3)C2=O)c2ccccc21
EC50 (Troponin, cardiac muscle): 1.47 µM (active)

COc1ccc(C2c3c(ncn(CCCO)c3=N)Oc3ccc4ccccc4c32)cc1 (stereo unspecified)
AC50 (CAAX prenyl protease 1): 8.82 µM (active) | AC50 (CAAX prenyl protease 2 [17]): 5.6 µM (active)

CCOC(=O)C1=C(C)OC(N)=C(C#N)C1c1cc2c(cc1[N+](=O)[O-])OCO2 (stereo unspecified)
AC50 (CAAX prenyl protease 2 [18]): 13.2 µM (active) | AC50 (CAAX prenyl protease 1): 5.61 µM (active) | IC50 (Prothrombin): 0.915 µM (active)

CC(=O)Nc1ccc(/N=C/c2nc(-c3ccc(C)cc3)oc2O)cc1
EC50 (Troponin, cardiac muscle): 11.6 µM (inactive) | EC50 [19]: > 300 µM (inconclusive) | IC50 (Estrogen receptor): 8.2 µM (active) | IC50 (Estrogen receptor beta [20]): 21.6 µM (not active) | IC50 (Estrogen receptor beta [21]): > 50 µM (not active) | EC50 [22]: > 300 µM (not active)
